Five compounds from patent US10189803B2, “Synthesis of therapeutic and diagnostic drugs centered on regioselective and stereoselective ring opening of aziridinium ions” (ILLINOIS INSTITUTE OF TECHNOLOGY, priority 2008, dated 2019) can be followed below.

As usually defined, the IC50 is the concentration that gives 50% inhibition.

Data set [1] is described as follows: In vitro serum stability of 205/6Bi-DEPA in human serum (SE-HPLC). It is filed as in vitro ADME. Also noted: Radiolabled Complex, in vitro serum stability (Table 1): unit not given here. The conditions noted are these: for Radiolabled Complex, in vitro serum stability (Table 1): 37° C. The method, then:
The new ligand DEPA was radiolabeled with ^177Lu and ^205/6Bi (a surrogate of ^212Bi and ^213Bi) and the corresponding radiolabeled complexes were evaluated for in vitro serum stability as described previously. For comparison, DOTA was also radiolabeled with ^177Lu. DEPA and DOTA (0.25 M NH4OAc buffer, pH 4.0) was radiolabeled with ^177Lu at 45° C. for 0.5 h to afford ^177Lu-DEPA (Rf=0.6) and ^177Lu-DOTA (Rf=0.4) in the respective radiochemical yield of 90% and 95% as determined by radio-TLC. DEPA (0.25 M NH4OAc buffer, pH 5.0) was successfully radiolabeled with ^205/6Bi at room temperature for 1 h to afford ^205/6Bi-DEPA in 96% yield (radio-TLC). ^177Lu-DOTA, 177Lu-DEPA, and ^205/6Bi-DEPA formed were purified from unbound ^205/6Bi by ion-exchange chromatography using a Chelex-100 column (1 mL volume bed, 100-200 mesh, Na^+ form, Bio-Rad, Richmond, Calif.) eluted with PBS (pH 7.4). In vitro serum stability of the purified radiolabeled complexes was performed to determine if DEPA or DOTA radiolabeled with ^177Lu or ^205/6Bi remained stable without loss of the radionuclide in human serum. This was assessed by measuring the transfer of radionuclide from the complex to serum proteins. […] However, ˜10% of the radioactivity was released from ^177Lu-DOTA over 4 days.
In vitro serum stability of the radiolabeled metal complexes. An aliquot of 3.7 MBq of the purified ^177Lu-labeled ligands was added to 0.5 mL of mouse serum (Sigma, St. Louis, Mo.) and 0.1% NaN3. The resulting mixture was incubated at 37° C. for 96 h. Aliquots of 2 μL of the resulting mixture were analyzed by radio-TLC and HPLC at different time points, 0, 0.25, 0.5, 1, 2, 4, 6, 24, 48, and 96 h of incubation. The stability of purified ^205/6Bi-DEPA was evaluated in human serum (Gemini Bioproducts, Woodland, Calif.) for 14 days by measuring the transfer of the radionuclide from the complex to serum proteins as monitored by SE-HPLC. Radiolabeled complexes were diluted to an appropriate volume that allowed for preparation of multiple samples containing 5-10 μCi and filter-sterilized using a Millex-GV 0.22 μm filter. 140 μL of this stock solution was then mixed with 1400 μL of sterile normal human serum or saline. Aliquots (200 μL) were drawn and separated into individual tubes for subsequent analysis using aseptic technique. The samples were incubated at 37° C., and at designated intervals, subjected to analysis by SE-HPLC. Samples were loaded onto the HPLC and eluted with PBS, pH 7.4 isocratically at 1 mL/min. […] Radioactivity associated with a transfer to serum proteins generally appeared between ˜4.5-8 min.

Data set [2] is described as follows: Biodistribution of 205/6Bi-DEPA in normal athymic mice. It is filed as in vivo. The method, then: Based on the promising data obtained from the AAIII based spectroscopic complexation kinetics and serum stability experiments, the stability of ^205/6Bi-DEPA was further evaluated by performing a biodistribution study in normal athymic mice as described previously. Blood levels and organ uptake of the radiolabeled complexes in mice were measured at five time points, 0.5, 1, 4, 8, and 24 h post-injection of ^205/6Bi-DEPA. […] Radioactivity that was detected in the blood and the organs was less than 2.44% ID/g at all points. At 24 h post injection, the % ID/g in the kidneys and spleen was 0.36±0.03% and 0.39±0.07%, respectively, which was slightly higher than that observed in other organs.

A short description of data set [3]: In vitro serum stability of radiolabeled C-NE3TA complexes in human serum (SE-HPLC). It is filed as in vitro ADME. The method, then: C-NE3TA was radiolabeled with ^90Y, ^177Lu, ^203Pb, ^205/6Bi, or ^153Gd as previously described (Chong, H. S.; Milenic, D. E.; Garmestani, K.; Brady, E. D.; Arora, H.; Pfiester, C.; Brechbiel, M. W., Nucl. Med. Biol. 2006, 33, 459-67; Chong H S, Garmestani K, Bryant Jr., L H Milenic D E, Overstreet T, Birch N, Le N, Brady E D, Brechbiel M W. J. Med. Chem. 2006, 49, 2055-2062). In vitro serum stability of the radiolabeled complexes purified via ion-exchange chromatography was performed to determine if C-NE3TA labeled with the radioisotopes remained stable without transchelation or loss of their respective radionuclide in human serum. This was assessed by measuring the transfer of radionuclide from the complex to serum proteins over the course of 11 days.
In vitro stability of the radiolabeled metal complexes. The stability of the purified radiolabeled complexes was evaluated in human serum (Gemini Bioproducts, Woodland, Calif.) for up to 11 days. The serum stability of the radiolabeled complexes was assessed by measuring the transfer of the radionuclide from each complex to serum proteins using SE-HPLC methods. Radiolabeled complexes were diluted to an appropriate volume that allowed for preparation of multiple samples containing 5-10 μCi and were filter-sterilized using a Millex-GV 0.22 μm filter. This stock solution was then mixed with 1400 μL of sterile normal human serum. Aliquots (200 μL) were drawn and separated into individual tubes for subsequent analysis using aseptic technique. The samples were incubated at 37° C., and at designated intervals, subjected to analysis by SE-HPLC. Samples were loaded onto the HPLC and eluted with PBS, pH 7.4 isocratically at 1 mL/min. […] Radioactivity associated with a transfer to serum proteins generally appeared at ˜6 min.

A further data set concerns HT29 cells. As to the kind of experiment: Antiproliferative activity, MTS assay, HT29 cells. Type of data set: cell-based, Human. The method, then:
(§1) Cell culture Human cervix HeLa cell line was obtained from ATCC (Rockville, Md.) and cultured in minimum essential medium (MEM) with L-glutamine (2 mM), Earle's BSS and sodium bicarbonate (1.5 g/L), supplemented with 10% fetal bovine serum (FBS), non-essential amino acids (0.1 mM), sodium pyruvate (1 mM) and antibiotic/antimycotic solution in a humidified atmosphere with 5% CO2 at 37° C. […] Lung fibroblast MRC-5 cell line was obtained from ATCC (Rockville, Md.) and cultured in ATCC formulated EMEM, supplemented with 10% fetal bovine serum (FBS) in a humidified atmosphere with 5% CO2 at 37° C.
(§2) Antiproliferative Activity. Cells were seeded onto 96-well plate at density of 2,000 cells for Hela cells or 5,000 cells for HT29 cells or 5,000 cells for MRC-5 per well in 0.1 mL complete medium and allowed to attach for 24 h. Varying concentrations of the test compounds in the final volume of 0.1 mL complete medium were then added in at least five series dilutions and incubated for 72 h. To measure cell proliferation, the Cell Titer 96 aqueous nonreactive cell proliferation assay (Promega Life Sciences, Madison, Wis.) was used according to the manufacturer's instructions. Briefly, MTS (2 mg/mL) and PMS (0.92 mg/ml) were mixed in a ratio of 20:1. An aliquot (20 μL) of the MTS/PMS mixture was added into each well, and the plate was incubated for 3 h at 37° C. Optical absorbance at 490 nm was then recorded with an enzyme-linked immunosorbent assay (ELISA) microtiter plate reader (Biotek). Each experiment was done at least in triplicate. Antiproliferative activity of the test compounds was expressed as the fraction of optical densities of treated the cells relative to the untreated solvent controls.^31 The data were plotted in GraphPad Prizm 3.0. Nonlinear regression analysis was used to determine IC50 values.
(§3) Cell culture. Human cervix HeLa cell line was obtained from ATCC (Rockville, Md.) and cultured in minimum essential medium (MEM) with L-glutamine (2 mM), Earle's BSS and sodium bicarbonate (1.5 g/L), supplemented with 10% fetal bovine serum (FBS), non-essential amino acids (0.1 mM), sodium pyruvate (1 mM) and antibiotic/antimycotic solution in a humidified atmosphere with 5% CO2 at 37° C.
as §2, with “activity.” for “Activity.”, “cells” for “cells or 5,000 cells for MRC-5”, “controls.” for “controls.^31”
A general note: Tetrazolium dyes change colour on reduction, which living cells bring about.

For data set [4], the system named is Hela cells. As to the kind of experiment: Iron saturation experiment, Hela cell growth (MTS). It is filed as cell-based, Human. The method, then:
Cytotoxicity of the new chelators was measured in the HeLa and HT29 cancer cells and compared to that of the clinically used iron chelators DFO and DTPA. […] The preliminary cell culture experiments were performed to see ifNETA is an effective cytotoxic agent. […] In order to investigate the effect of the chelators on the cellular growth, the Hela cancer cells saturated with Fe(III)-citrate (50 μM) were incubated with each of the chelators (50 μM).
Iron Saturation Experiment Hela Cells were inoculated onto 96-well plates at density of 2,000 per well in 0.1 mL complete medium and incubated for 24 h. […] Control samples containing no ferric citriate were also tested. […] After the incubation, cells proliferation rates were evaluated by MTS assay.

For data set [5], the system named is Hela cells. As to the kind of experiment: Antiproliferative activity, MTS assay, HeLa cells. Type of data set: cell-based, Human. The conditions noted are these: Homo sapiens; 72 h incubation, MTS. The method, then: as §1, §2, §3
as §2, with “activity.” for “Activity.”, “cells” for “cells or 5,000 cells for MRC-5”, “controls.” for “controls.^31”

Where [6] appears, read: Homo sapiens, HT-29, 72 h incubation.

Entries after “also recorded” stand apart in the source; their conditions may differ.

`O=C([O-])CN1CCN(CCN(CC(=O)[O-])CC(=O)[O-])CCN(CC(=O)[O-])CCN(CC(=O)[O-])CC1.[Bi+3]` [^205/6Bi-DEPA]: the “Radiolabled Complex, in vitro serum stability (Table 1)” value (shortened to “Radiolabled Complex”) in data set [1] (0 h), in data set [1] (0.5 h), in data set [1] (1 h), in data set [1] (2 h), in data set [1] (4 h) and in data set [1] (6 h) was 100 throughout. In addition, the “Radiolabled Complex” value in data set [1] (24 h), in data set [1] (48 h), in data set [1] (96 h), in data set [1] (120 h), in data set [1] (192 h) and in data set [1] (288 h) was 100 each time. For the same compound, in data set [1] (336 h), the “Radiolabled Complex” value came out at 100. For the same compound, the “serum stability of 205/6Bi complex (in words)” value in data set [1] (14 days) is reported as “no radioactivity was released over 14 days; also recorded: very stable in human serum for 2 weeks”. Also, the “bone accumulation of the radioactivity” value is reported as 2.02±0.96 % ID/gm in data set [2] (0.5 h) and 0.38±0.09 % ID/gm in data set [2] (1 h). Also, the “% ID/g in the kidneys” value in data set [2] (24 h post injection) was 0.36±0.03 % ID/g. Also, the “% ID/g in the spleen” value in data set [2] (24 h post injection) was 0.39±0.07 % ID/g. Moreover, the “Radioactivity detected in the blood and the organs” value in data set [2] (all time points, 0.5-24 h post-injection) is “less than 2.44 % ID/g”. The “in vivo stability and clearance (in words)” value in data set [2] (normal athymic mice) was “essentially inert in vivo and rapidly cleared from the body”.
In the case of `O=C(O)CNC(Cc1ccc([N+](=O)[O-])cc1)CN1CCN(CC(=O)O)CCN(CC(=O)O)CC1.[203Pb]` (stereo not drawn) [^203Pb-C-NE3TA], the “stability in human serum (in words)” value in data set [3] (37° C., up to 11 days) is recorded as “no measurable loss of radioactivity”. The “radionuclide dissociated from the complex” value in data set [3] (in 1 day) is recorded as approximately 40%.
Take `O=C(O)CN1CCN(CCN(CC(=O)O)CC(=O)O)CCN(CC(=O)O)CC1` [NETA]: it took 7.3 ± 1.5 µM to reach half-maximal inhibition in the data set on HT29 cells (72 h incubation) (IC50). For the same compound, the “anti-proliferative activity compared to DFO” value in the data set with Hela cells [4] (50 μM, HeLa) is given as “three-fold increased anti-proliferative activity compared to DFO”. For the same compound, in the data set on Hela cells [4] (chelator 50 μM, Fe(III)-citrate 50 μM), the “effect on Hela cells saturated with Fe(III)-citrate (in words)” value is “almost no anti-proliferative activity”. The “HeLa cancer cells died” value in the data set with Hela cells [4] (free ligand 50 μM, no ferric citrate) is listed as approximately 80%.
Take `O=C(O)CNC(Cc1ccc([N+](=O)[O-])cc1)CN1CCN(CC(=O)O)CCN(CC(=O)O)CC1` (stereo not drawn) [C-NE3TA, {4-Carboxymethyl-7-[2-(carboxymethyl-amino)-3-(4-nitro-phenyl)-propyl]-[1,4,7]triazonan-1-yl}-acetic acid]: the IC50 with Hela cells [5] turned out to be 7.1 ± 0.1 µM; in the data set with HT29 cells (setting [6]) it was 5 ± 0.7 µM.
The like results for `O=C(O)CN1CCN(CCN(CC(=O)O)Cc2ccc([N+](=O)[O-])cc2)CCN(CC(=O)O)CC1` [N-NE3TA] were, in that order, 8.4 ± 0.4 µM and 6.8 ± 0.4 µM.
